Test results reported in patent publication US7915291B2, “Hepatitis C virus inhibitors” (Bristol-Myers Squibb Company, priority 2002, dated 2011).
Like-named read-outs stand apart in the source and are kept apart here.

Assays:
[1] = test system: HCV replicon in Huh7 cells; test: HCV replicon cell-based assay; design: species or system HCV strain 1B; details: Hepatitis C virus, Huh-7; HCV replicon, Huh7 cells; read-out: EC50 range
[2] = target: HCV NS3/4A protease complex, BMS strain (UniProt P27958, C1454S/C1711G, species not given/STRAIN_BMS); test: Recombinant HCV NS3/4A protease complex FRET peptide assay (BMS strain); type: biochemical, HCV genotype 1a
How it was run: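 Recombinant BMS-strain NS3/4A (His-tagged NS4A with three-lysine tail, E. coli) at 2-3 nM preincubated 1 min with compound, then 2 μM ester-linked NS4A/NS4B-based FRET peptide added. Fluorescence followed in real time ~15 min at 25° C. Percent inhibition from slope of linear fluorescence change versus no-compound control.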

[3] = NS3/4A BMS strain; read-out: IC50 range
[4] = read-out: IC50 range; NS3/4A BMS strain

Row | Compound | EC50 [1] | IC50 [2, 3] | IC50 [2, 4]
1 | C=C[C@@H]1C[C@]1(NC(=O)[C@@H]1C[C@@H](Oc2nc(-c3ccoc3)cc3cc(OC)ccc23)CN1C(=O)[C@@H](NC(=O)OC(C)(C)C)C(C)(C)C)C(=O)NS(=O)(=O)C1CC1 [Compound 41] | < 0.1 µM | < 0.1 µM | –
2 | C=C[C@@H]1C[C@]1(NC(=O)[C@@H]1C[C@@H](Oc2cncc(-c3ccoc3)c2)CN1C(=O)[C@@H](NC(=O)OC(C)(C)C)C(C)(C)C)C(=O)NS(=O)(=O)C1CC1 [Compound 424] | 0.1 to 1 µM | < 0.1 µM | –
3 | C=CC1C[C@]1(NC(=O)[C@@H]1C[C@@H](Oc2nnc(-n3cncn3)c3ccccc23)CN1C(=O)[C@@H](NC(=O)OC(C)(C)C)C(C)(C)C)C(=O)NS(=O)(=O)C1CC1 (stereo partly drawn) [Compound 198, BOCNH-P3(L-tert-BuGly)-P2[(4R)-(4-(1,2,4-triazo-1-yl)phthalazine-1-oxo)-S-proline]-P1(1R,2S Vinyl Acca)-CONHSO2-Cyclopropane] | 0.1 to 1 µM | < 0.1 µM | –
4 | C=C[C@@H]1C[C@]1(NC(=O)[C@@H]1C[C@@H](Oc2nccc3cc(OC)ccc23)CN1C(=O)[C@@H](NC(=O)NC1CCCC1)[C@H](C)OC)C(=O)NS(=O)(=O)C1CC1 [Compound 103] | < 0.1 µM | < 0.1 µM | –
5 | C=CC1CC1(NC(=O)C1CC(Oc2nc(C3CC3)nc3cc(OC)c(OC)cc23)CN1C(=O)[C@@H](NC(=O)OC(C)(C)C)C(C)(C)C)C(=O)NS(=O)(=O)C(C)C (mixture of isomers) [Compound 46] | 1 to 10 µM | 0.1 to 1 µM | –
6 | C=C[C@@H]1C[C@]1(NC(=O)[C@@H]1C[C@@H](Oc2nccc3c(Cl)cccc23)CN1C(=O)[C@@H](NC(=O)OC(C)(C)C)C(C)(C)C)C(=O)NS(=O)(=O)C1CC1 [Compound 254] | < 0.1 µM | < 0.1 µM | –
7 | C=C[C@@H]1C[C@]1(NC(=O)[C@@H]1C[C@@H](Oc2nccc3cc(OC)ccc23)CN1C(=O)[C@@H](NC(=O)OC(C)(C)C)[C@H](C)CC)C(=O)NS(=O)(=O)C1CC1 [Compound 13] | < 0.1 µM | < 0.1 µM | –
8 | C=CC1C[C@]1(NC(=O)[C@@H]1C[C@@H](Oc2nc(-c3ccccc3N(C)C)cc3cc(OC)ccc23)CN1C(=O)[C@@H](NC(=O)OC(C)(C)C)C(C)(C)C)C(=O)NS(=O)(=O)C1CC1 (stereo partly drawn) [Compound 329] | < 0.1 µM | < 0.1 µM | –
9 | C=C[C@@H]1CC1(NC(=O)[C@@H]1CC(Oc2nccc3cc(OC)ccc23)CN1C(=O)[C@@H](NC(=O)O[C@H]1C[C@@H](C)CC[C@@H]1C(C)C)C(C)(C)C)C(=O)NS(=O)(=O)C1CC1 (stereo partly drawn) [Compound 65] | 0.1 to 1 µM | < 0.1 µM | –
10 | C=CC1C[C@]1(NC(=O)[C@@H]1C[C@@H](Oc2nccc3cc(C(C)C)ccc23)CN1C(=O)[C@@H](NC(=O)OC(C)(C)C)C(C)(C)C)C(=O)NS(=O)(=O)C1CC1 (stereo partly drawn) [Compound 190, BOCNH-P3(L-tert-BuGly)-P2[(4R)-(6-isopropyl isoquinolin-1-oxo)-S-proline]-P1(1R,2S Vinyl Acca)-CONHSO2-Cyclopropane] | 0.1 to 1 µM | < 0.1 µM | –
11 | C=C[C@@H]1C[C@]1(NC(=O)[C@@H]1C[C@@H](Oc2nccc3c4c(ccc23)CCO4)CN1C(=O)[C@@H](NC(=O)OC(C)(C)C)C(C)(C)C)C(=O)NS(=O)(=O)C1CC1 [Compound 265] | < 0.1 µM | < 0.1 µM | –
12 | C=C[C@@H]1C[C@]1(NC(=O)[C@@H]1C[C@@H](Oc2nccc3cc(OC)ccc23)CN1C(=O)[C@@H](NC(=O)OC(C)(C)C)C1CCCC1)C(=O)NS(=O)(=O)C1CC1 [Compound 149] | < 0.1 µM | < 0.1 µM | –
13 | C=C[C@@H]1C[C@]1(NC(=O)[C@@H]1C[C@@H](Oc2ccnc(Br)c2)CN1C(=O)[C@@H](NC(=O)OC1CCCC1)C(C)(C)C)C(=O)NS(=O)(=O)C1CC1 [Compound 425] | 1 to 10 µM | 0.1 to 1 µM | –
14 | C=C[C@@H]1C[C@]1(NC(=O)[C@@H]1C[C@@H](Oc2nccc3c(Cl)c(OC)ccc23)CN1C(=O)[C@@H](NC(=O)OC(C)(C)C)C(C)(C)C)C(=O)NS(=O)(=O)C1CC1 [Compound 275] | < 0.1 µM | < 0.1 µM | –
15 | C=C[C@@H]1C[C@]1(NC(=O)[C@@H]1C[C@@H](Oc2nccc3ccc(Cl)cc23)CN1C(=O)[C@@H](NC(=O)OC(C)(C)C)C(C)(C)C)C(=O)NS(=O)(=O)C1CC1 [Compound 258] | < 0.1 µM | < 0.1 µM | –
16 | CC[C@@H]1C[C@]1(NC(=O)[C@@H]1C[C@@H](Oc2nccc3cc(OC)ccc23)CN1C(=O)[C@@H](NC(=O)OC(C)(C)C)C(C)(C)C)C(=O)NS(=O)(=O)C(C)C [Compound 15] | 1 to 10 µM | 0.1 to 1 µM | –
17 | C=CC1C[C@]1(NC(=O)[C@@H]1C[C@@H](Oc2cnc3ccccc3n2)CN1C(=O)[C@@H](NC(=O)OC(C)(C)C)C(C)(C)C)C(=O)NS(=O)(=O)C1CC1 (stereo partly drawn) [Compound 237, BOCNH-P3(L-t-BuGly)-P2[(4R)-(quinoxaline-2-oxo)-S-proline]-P1(1R,2S VinylAcca)-CONHSO2Cyclopropane] | 0.1 to 1 µM | < 0.1 µM | –
18 | C=C[C@@H]1C[C@]1(NC(=O)[C@@H]1C[C@@H](Oc2cncc(-c3ccncc3)c2)CN1C(=O)[C@@H](NC(=O)OC(C)(C)C)C(C)(C)C)C(=O)NS(=O)(=O)C1CC1 [Compound 422] | 1 to 10 µM | < 0.1 µM | –
19 | C=C[C@@H]1C[C@]1(NC(=O)[C@@H]1C[C@@H](Oc2nccc3ccc(F)cc23)CN1C(=O)[C@@H](NC(=O)OC(C)(C)C)C(C)(C)C)C(=O)NS(=O)(=O)C1CC1 [Compound 257] | < 0.1 µM | < 0.1 µM | –
20 | C=CC1C[C@]1(NC(=O)[C@@H]1C[C@@H](Oc2nnc(-n3ccnc3)c3ccccc23)CN1C(=O)[C@@H](N)C(C)(C)C)C(=O)NS(=O)(=O)C1CC1 (stereo partly drawn) [Compound 197, NH2—P3(L-tert-BuGly)-P2[(4R)-(4-(imidazo-1-yl)phthalazine-1-oxo)-S-proline]-P1(1R,2S Vinyl Acca)-CONHSO2-Cyclopropane] | 10 to 100 µM | 0.1 to 1 µM | –
21 | C=CC1C[C@]1(NC(=O)[C@@H]1C[C@@H](COc2cccc(Br)c2)CN1C(=O)[C@@H](NC(=O)OC)C(C)(C)C)C(=O)NS(=O)(=O)C1CC1 (stereo partly drawn) [Compound 345] | 10 to 100 µM | 1 to 10 µM | –
22 | C=CC1C[C@]1(NC(=O)[C@@H]1C[C@@H](Oc2cc(C(F)(F)F)nc3c(C(F)(F)F)cccc23)CN1C(=O)[C@@H](NC(=O)OC(C)(C)C)C(C)(C)C)C(=O)NS(=O)(=O)C1CC1 (stereo partly drawn) [Compound 181, BOCNH-P3(L-tert-BuGly)-P2[(4R)-(2,8-bistrifluoromethyl quinolin-4-oxo)-S-proline]-P1(1R,2S Vinyl Acca)-CONHSO2-Cyclopropane] | 0.1 to 1 µM | < 0.1 µM | –
23 | C=CC1C[C@]1(NC(=O)[C@@H]1C[C@@H](Oc2nnc(Cl)c3ccccc23)CN1C(=O)[C@@H](NC(=O)OC(C)(C)C)C(C)(C)C)C(=O)NS(=O)(=O)C1CC1 (stereo partly drawn) [Compound 195, BOCNH-P3(L-tert-BuGly)-P2[(4R)-(4-chloro phthalazine-1-oxo)-S -proline]-P1(1R,2S Vinyl Acca)-CONHSO2-Cyclopropane] | < 0.1 µM | < 0.1 µM | –
24 | C=C[C@@H]1C[C@]1(NC(=O)[C@@H]1C[C@@H](Oc2ncc(Cl)c3cc(OC)ccc23)CN1C(=O)[C@@H](NC(=O)OC(C)(C)C)C(C)(C)C)C(=O)NS(=O)(=O)C1CC1 [Compound 278] | < 0.1 µM | < 0.1 µM | –
25 | C=C[C@@H]1C[C@]1(NC(=O)[C@@H]1C[C@@H](Oc2nccc3ccccc23)CN1C(=O)[C@@H](NC(=O)CCOC)C(C)(C)C)C(=O)NS(=O)(=O)C1CC1 [Compound 132] | 1 to 10 µM | < 0.1 µM | –
26 | C=CC1C[C@]1(NC(=O)[C@@H]1C[C@@H](Oc2nnc(O)c3ccccc23)CN1C(=O)[C@@H](NC(=O)OC(C)(C)C)C(C)(C)C)C(=O)NS(=O)(=O)C1CC1 (stereo partly drawn) [Compound 202, BOCNH-P3(L-t-BuGly)-P2[(4R)-(4-hydroxyphthalazine-1-oxo)-S -proline]P1(1R,2S VinylAcca)-CONHSO2Cyclopropane] | 1 to 10 µM | < 0.1 µM | –
27 | C=CC1C[C@]1(NC(=O)[C@@H]1C[C@@H](COc2cccc(-c3ccoc3)n2)CN1C(=O)[C@@H](NC(=O)OC)C(C)(C)C)C(=O)NS(=O)(=O)C1CC1 (stereo partly drawn) [Compound 355] | 10 to 100 µM | 0.1 to 1 µM | –
28 | C=C[C@@H]1CC1(NC(=O)[C@@H]1CC(Oc2nccc3cc(OC)ccc23)CN1C(=O)[C@@H](NC(=O)CC1CC1)C(C)(C)C)C(=O)NS(=O)(=O)C1CC1 (stereo partly drawn) [Compound 58] | < 0.1 µM | – | < 0.1 µM
29 | C=C[C@@H]1CC1(NC(=O)[C@@H]1CC(Oc2nccc3cc(OC)ccc23)CN1C(=O)[C@@H](NC(=O)O[C@@H]1C[C@H](C)CC[C@H]1C(C)C)C(C)(C)C)C(=O)NS(=O)(=O)C1CC1 (stereo partly drawn) [Compound 66] | 0.1 to 1 µM | < 0.1 µM | –
30 | C=C[C@@H]1C[C@]1(NC(=O)[C@@H]1C[C@@H](Oc2nccc3cc(OC)ccc23)CN1C(=O)[C@@H](NC(=O)OC(C)(C)CC)[C@H](C)OC)C(=O)NS(=O)(=O)C1CC1 [Compound 105] | < 0.1 µM | – | < 0.1 µM
